The values that follow come from patent US9464080B2, “Substituted pyrido[2,3-d]pyrimidines for dry skin and anti-ageing application” (L'OREAL, priority 2012, dated 2016).

Type in all cases: cell-based
In test [1] the test system is Episkin™ reconstructed epidermis. The test can be described thus: HES morphological observation of treated Episkin reconstructed epidermis. As to conditions: systemic treatment over 5 days. As for the experimental part:
(§1) The reconstructed epidermises, received from the Episkin company at six days of reconstruction, were placed back into culture, when received, in 3.5 ml of differentiation medium (Episkin™ medium) under insert (in emersion) in an incubator for 48 hours (37° C., 5% CO2).
(§2) The epidermises were subsequently contacted with the test compounds systemically. The Episkin™ differentiation culture medium is replaced by a differentiation medium containing the test compounds with 0.1% of final DMSO vehicle. The epidermises were placed back into culture in the incubator for 48 hours. A new systemic treatment is carried out for a further 72 hours in culture in the incubator.
(§3) For the treatment on Episkin™, each test compound was prepared at the time of use by being weighed out and dissolved at 10 mM in DMSO, then used to treat 3 samples of reconstructed epidermis. […] The positive controls used were vitamin D3, retinol and calcipotriol (a vitamin D3 analogue).
(§4) The epidermises were withdrawn (3 epidermises per treatment) for histological analysis and protein extracts (a single reconstructed epidermis is used for the histological study and the protein extract).
Morphological control of the reconstructed epidermises treated was carried out using HES (Hematoxylin—Eosin—Saffron) staining in accordance with a standard protocol on the histological sections of the samples enclosed in paraffin (toluene bath: thrice 15 minutes; 100° alcohol baths; twice one minute; 95° alcohol baths: one minute; rinsing in water baths; hematoxylin bath: once 2 minutes; rinsing in water baths; brief immersion in a hydrochloric acid bath; rinsing with water; eosin bath: once one minute; rinsing with water; brief immersion in a 100° alcohol bath; saffron bath (5 minutes); brief immersion in a 100° alcohol bath; toluene bath: thrice 2 minutes).

The test system of the next test is CD44. Put plainly: CD44 immunolabelling of treated Episkin reconstructed epidermis. Particulars: for CD44: Episkin, systemic treatment over 5 days, effect generally rated for the highest concentration used (10 μM). As for the experimental part: as §1, §2
For the treatment on Episkin™, each test compound was prepared at the time of use by being weighed out and dissolved at 10 mM in DMSO, then used to treat 3 samples of reconstructed epidermis. Furthermore, each compound under test was employed at a final 1 and […] in the culture medium (0.1% final DMSO). The positive controls used were vitamin D3, retinol and calcipotriol (a vitamin D3 analogue).
as §4
The samples of epidermis were enclosed in OCT for freezing in liquid nitrogen and then stored at −80° C. The resulting blocks were cut to a thickness of 7 μm using a cryostat, and the slices were dried and stored at −20° C. while awaiting immunolabelling.
The labels selected for the immunolabelling are as follows: • Ki67 to provide information on any change in cell proliferation in the basal layer, and • CD44 to provide information on any change in the metabolism of the living layers and in the proliferation/differentiation balance.

A further test has as its system Ki67. Put plainly: Ki67 immunolabelling of treated Episkin reconstructed epidermis. As for the experimental part: as §1, §2, §3, §4
The samples of epidermis were enclosed in OCT for freezing in liquid nitrogen and then stored at −80° C. […]

The mark [2] stands for this setting: effect generally rated for the highest concentration used (10 μM).

In test [1] (setting [2]), `CCOC(=O)C1=C(C)Nc2c(c(=O)n(C)c(=O)n2C)C1c1cccc(Oc2ccccc2)c1` (stereo not drawn) [Compound (2)] displayed an HES of 0. The compound also registered a CD44 with CD44 of 0.
With `CCOC(=O)C1=C(C)Nc2c(c(=O)n(C)c(=O)n2C)C1CC(C)C` (stereo not drawn) [Compound (4)], the HES in test [1] (setting [2]) was determined as 0. Moreover, the Ki67 labelling result in the test on Ki67 (Episkin samples treated, FIG. 2) was “strong increase in Ki67 labelling”. The CD44 immunolabelling entry with CD44 (Episkin samples treated, FIG. 3) is recorded as “increase in CD44”. The CD44 result in the test on CD44 is recorded as “++ (*)”.
`CC1=C(/C=C/C(C)=C/C=C/C(C)=C/CO)C(C)(C)CCC1` [Retinol, retinol, reference compound]: the HES in test [1] (100 μM) is given as 0. In the test on Ki67 (Episkin, systemic treatment over 5 days, 100 μM), this compound showed a Ki67 of 0.
Compound `C=C1CC[C@H](O)C/C1=C/C=C1\CCC[C@]2(C)[C@@H]([C@H](C)CCCC(C)C)CC[C@@H]12` [Vitamin D3, vitamin D3, reference compound] had an HES in test [1] (setting [2]) of 0.
